“And” between values parts separate entries of the source, which are not always exact repeats. Identical values can stand only once. Blank lines part the entries; values can stand above or below the molecule they belong to.
How the values were obtained:
Assay type in all cases: physicochemical
[1] = Particle size distribution (PSD) of micronized / spray dried material; details: for Dv10 (μm) 1 / Dv50 (μm) 1 / Dv90 (μm) 1 / SPAN1 / Dv10 (μm) 2 / Dv50 (μm) 2 / Dv90 (μm) 2 / SPAN 2: wet polished (wet milled + spray dried) Compound 1 Form A; for Dv10 (μm) 1 / Dv50 (μm) 1 / Dv90 (μm) 1 / SPAN1: PSD set 1; for Dv10 (μm) 2 / Dv50 (μm) 2 / Dv90 (μm) 2 / SPAN 2: PSD set 2
From the text: Crystalline Compound 1 Form A was fed into a grinding chamber tangentially by vacuum created by the venturi system using pressurized nitrogen (venturi pressure, Pvent, above grind pressure, Pgrind). Compressed nitrogen was also used for the jet nozzles in the walls of the chamber. The feed flow rate was set and controlled automatically (by a gravimetric feeder) or manually. Once inside the milling chamber particles were accelerated by a series of perimeter jets, in a spiral movement. The compressed fluid issuing from the nozzles expands from Pgrind and imparts very high rotational speeds in the chamber. The micronizing effect occurs when the slower incoming particles and the faster particles in the spiral path collide. While centrifugal force retains the larger particles at the periphery of the milling chamber, the smaller particles exit with the exhaust gas from the center of the chamber. Five 20 g trials were performed in a 1.5″ jet mill, under varying feed rates (Ffeed,JM,) and pressures; the optimal conditions were used for a sixth larger scale 50 g trial.
Aqueous suspensions of crystalline Compound 1 Form A in water (5% w/w or 10% w/w) were processed via microfluidization with a HPH18 (M-110EH-30 Microfluidics Pilot) wet milling apparatus equipped with an auxiliary processing module (200 μm) and an interaction chamber (Z-shape, 100 μm). The unit was initiated at a given pressure for the first five cycles to perform a pre-milling of the suspension, using only the auxiliary processing module (200 μm). The interaction chamber (100 μm) was then introduced and the suspension processed at a defined pressure. The temperature was controlled, using a reactor jacket, and recorded. To address clogging of the micronization chambers (observed after ~25 cycles), the pressure was increased from 25 to 60 bar.
The material isolated from the first run 1A, was dived into three (1BI, 1BII and 1BIII); runs 2A and 3A were spray dried to produce samples 2B and 3B, respectively. […] Runs 2B and 3B were additionally characterized for specific surface area (SSA). See Table 27 (runs 1BI, 1BII and 1BIII) and Table 28 (runs 2B and 3B) for conditions and product characterization. […]
Two 250 g batches of crystalline Compound 1 Form A were each suspended in water (5 L) and wet polished in a wet milling HPH18 (M-110EH-30 Microfluidics Pilot) apparatus, equipped with an auxiliary processing module (200 μm) and an interaction chamber (Z-shape, 100 μm). The unit was initiated at 50 bar for the first five cycles to perform a pre-milling of the suspension, using only the auxiliary processing module (200 μm). The interaction chamber (100 μm) was then introduced and the suspension processed at 50 bar (increased to 60 or 70 bar if the system clogged). The temperature was maintained at 18-28° C. using a reactor jacket. The Reactor agitation speed was 280 RPM (batch 1) and 390 RPM (batch 2). The first batch was micronized for 25 cycles and particle size distribution analyzed after 5, 15 and 20 cycles; the second batch was micronized for […] and particle size distribution analyzed after 15, 20, 25 and 35 cycles.
Both batches were then spray dried (separately) using a Büchi spray dryer, using an open loop system. The unit was equipped with a two-fluid nozzle: cap and orifice diameters of 1.5 and 0.7 mm, respectively operated with nitrogen. The aspirator, blowing nitrogen, was set at 100% capacity (~40 kg/h). The suspension feed flow was set to 8 ml/min, high and the drying outlet temperature to 75±1° C. […] Total yield (both batches combined) was 267 g (53%).
Two 250 g batches (250 g and 238 g; 488 g total) of crystalline Compound 1 Form A coated with ~2% L-leucine were each suspended in water (5 L) and wet polished in a wet milling HPH18 (M-110EH-30 Microfluidics Pilot) apparatus, under the same process as described in the previous example. The first batch was micronized for 25 cycles and the second for 30 cycles. […]

[2] = Product characterization of micronized / spray dried powder (XRPD, amorphous content, water content by KF, assay and related substances, SSA)
[3] = as above; details: for KF: water content
From the text: The final spray dried product was characterized for assay and related substances, PSD, water content by KF and XRPD and the results shown in Table 43. The two sub-batches were blended to obtain the final product, with a total final yield was 137 g (68%), see Table 44.

[4] = Compound 1 alone after wet milling, BATCH 01: 20 cycles/P = 50 bar, BATCH 02: 35 cycles/P = 70 bar
[5] = final product, Compound 1 alone, wet polished and spray dried
[6] = jet milled crystalline Compound 1 Form A, label = jet mill run
[7] = Compound 1 alone, spray dried, individual batch analyses, cyclone 1
[8] = Compound 1 alone, spray dried, individual batch analyses, cyclone 2
[9] = wet polished (wet milled + spray dried) Compound 1 Form A

- KF [3, 9]: 0.5 % w/w
- Amorphous content [3, 9]: <10 % w/w
- Assay [3, 9]: 98.9 % LC
- Impurities [3, 9]: 1.1 % area
- XRPD [3, 9]: Crystalline
- Dv10 (μm) 1 [1]: 1.8 μm
- Dv50 (μm) 1 [1]: 3.5 μm
- Dv90 (μm) 1 [1]: 6.6 μm
- SPAN1 [1]: 1.4
- Dv10 (μm) 2 [1]: 1.5 μm
- Dv50 (μm) 2 [1]: 3.3 μm
- Dv90 (μm) 2 [1]: 6.7 μm
- SPAN 2 [1]: 1.6
Structure (SMILES): COc1ccc(-c2cncc(N[C@@H](C)c3cccc(NC(=O)c4cncc(C)c4)c3)n2)cc1OC [Compound 1BI]

- Dv10 (μm) 2 [1]: 1.3 μm
- Dv50 (μm) 2 [1]: 3.7 μm
- Dv90 (μm) 2 [1]: 14.7 μm
- SPAN 2 [1]: 3.6
Structure (SMILES): COc1ccc(-c2cncc(N[C@@H](C)c3cccc(NC(=O)c4cncc(C)c4)c3)n2)cc1OC [Compound 3B-2F]

More lines, now with the values behind:

Structure (SMILES): COc1ccc(-c2cncc(N[C@@H](C)c3cccc(NC(=O)c4cncc(C)c4)c3)n2)cc1OC [BATCH 01]
- Dv10 [1, 4]: 0.2 μm
- Dv50 [1, 4]: 0.5 μm
- Dv90 [1, 4]: 1.7 μm

Structure (SMILES): COc1ccc(-c2cncc(N[C@@H](C)c3cccc(NC(=O)c4cncc(C)c4)c3)n2)cc1OC [BATCH 02]
- Dv10 [1, 4]: 0.3 μm
- Dv50 [1, 4]: 0.8 μm
- Dv90 [1, 4]: 3.4 μm

Structure (SMILES): COc1ccc(-c2cncc(N[C@@H](C)c3cccc(NC(=O)c4cncc(C)c4)c3)n2)cc1OC [Compound 1, N-{3-[(1S)-1-{[6-(3,4-dimethoxyphenyl)pyrazin-2-yl]amino}ethyl]phenyl}-5-methylpyridine-3-carboxamide]
- Amorphous content by DSC [2, 5]: <10 % w/w
- Amorphous content by DSC [2, 6]: 46 % w/w
- Assay [2, 6]: 97.70 % LC
- Impurities [2, 6]: 1.10 % area
- Water content KF [2, 6]: 1.4 % w/w
- XRPD [2, 6]: P + A
- Specific Surface Area by BET ([2]; jet milled crystalline Compound 1 Form A, label = jet mill run, in m2/g (unit assumed)): 10.35
- Bulk density [3, 5]: 0.10 g/mL
- KF (water content) [3, 5]: 0.3 % w/w
- XRPD [3, 5]: Form A
- Dv10 [1, 7]: 0.1 μm and 0.3 μm
- Dv50 [1, 7]: 0.4 μm and 0.5 μm
- Dv90 [1, 7]: 3.1 μm and 1.5 μm
- SPAN [1, 7]: 7.2 and 2.1
- Dv10 [1, 8]: 0.1 μm and 0.3 μm
- Dv50 [1, 8]: 0.4 μm and 0.5 μm
- Dv90 [1, 8]: 2.9 μm and 1.4 μm
- SPAN [1, 8]: 7.9 and 2.0
- Dv10 [1, 5]: 0.3 μm
- Dv50 [1, 5]: 0.6 μm
- Dv90 [1, 5]: 3.3 μm
- SPAN [1, 5]: 4.7
- Dv10 [1, 6]: 0.4 μm
- Dv50 [1, 6]: 1.2 μm
- Dv90 [1, 6]: 2.8 μm
- SPAN [1, 6]: 2.0

Structure (SMILES): COc1ccc(-c2cncc(N[C@@H](C)c3cccc(NC(=O)c4cncc(C)c4)c3)n2)cc1OC [Compound 1BIII]
- KF [3, 9]: 0.1 % w/w
- Amorphous content [3, 9]: <10 % w/w
- Assay [3, 9]: 99.40 % LC
- Impurities [3, 9]: 1.10 % area
- XRPD [3, 9]: Crystalline
- Dv10 (μm) 1 [1]: 1.7 μm
- Dv50 (μm) 1 [1]: 3.4 μm
- Dv90 (μm) 1 [1]: 6.6 μm
- SPAN1 [1]: 1.4
- Dv10 (μm) 2 [1]: 1.4 μm
- Dv50 (μm) 2 [1]: 3.1 μm
- Dv90 (μm) 2 [1]: 6.6 μm
- SPAN 2 [1]: 1.7

Structure (SMILES): COc1ccc(-c2cncc(N[C@@H](C)c3cccc(NC(=O)c4cncc(C)c4)c3)n2)cc1OC [Compound 1BII]
- KF [3, 9]: 0.2 % w/w
- Amorphous content [3, 9]: <10 % w/w
- Assay [3, 9]: 102.0 % LC
- Impurities [3, 9]: 0.9 % area
- XRPD [3, 9]: Crystalline
- Dv10 (μm) 1 [1]: 1.7 μm
- Dv50 (μm) 1 [1]: 3.3 μm
- Dv90 (μm) 1 [1]: 6.3 μm
- SPAN1 [1]: 1.4
- Dv10 (μm) 2 [1]: 1.3 μm
- Dv50 (μm) 2 [1]: 3 μm
- Dv90 (μm) 2 [1]: 6.1 μm
- SPAN 2 [1]: 1.6

Reference: US12703693B2, “Crystalline forms of N-{3-[(1S)-1-{[6-(3,4-dimethoxyphenyl)pyrazin-2-yl]amino}ethyl]phenyl}-5-methylpyridine-3-carboxamide and related products and methods” (GB002, INC., priority 2021, dated 2026)
